Measured values from patent US20130023585A1, “Neuraminidase Inhibitors” (TSRL, INC., priority 2010, published 2013).

System: Hong Kong/2369/2009 (H1N1) H275Y oseltamivir resistant
Format: cell-based, influenza virus

CCC(CC)O[C@@H]1C=C(C(=O)O)C[C@H](NC(=N)N)[C@H]1NC(C)=O [GOC, 4-guanidinio oseltamivir carboxylate]
activity against the Oseltamivir resistant strain: remains active | EC50 (read-out: 50% effective concentration (EC50)): 1700 nM
